According to EP0792271B1, “FURAN DERIVATIVES FOR INHIBITING PNEUMOCYSTIS CARINII PNEUMONIA, GIARDIA LAMBLIA AND CRYPTOSPORIDIUM PARVUM” (priority 1994, dated 1996):
Like-named read-outs stand apart in the source and are kept apart here.

Tests used:
[1] = molecular target: topoisomerase II isolated from Giardia lamblia; experiment: Topoisomerase II inhibition (Giardia lamblia enzyme); type: biochemical; conditions: 50% inhibition of topoisomerase II isolated from Giardia lamblia; read-out: IC50 Topoisomerase Activity II G.l.
[2] = molecular target: T1, topoisomerase II isolated from Drosophila melanogaster (Drosophila melanogaster, UniProt P15348); experiment: Topoisomerase II inhibition (Drosophila melanogaster enzyme); type: biochemical
T1 construct: topoisomerase II isolated from Drosophila melanogaster; from tissue
T1 sequence (P15348 1-1447): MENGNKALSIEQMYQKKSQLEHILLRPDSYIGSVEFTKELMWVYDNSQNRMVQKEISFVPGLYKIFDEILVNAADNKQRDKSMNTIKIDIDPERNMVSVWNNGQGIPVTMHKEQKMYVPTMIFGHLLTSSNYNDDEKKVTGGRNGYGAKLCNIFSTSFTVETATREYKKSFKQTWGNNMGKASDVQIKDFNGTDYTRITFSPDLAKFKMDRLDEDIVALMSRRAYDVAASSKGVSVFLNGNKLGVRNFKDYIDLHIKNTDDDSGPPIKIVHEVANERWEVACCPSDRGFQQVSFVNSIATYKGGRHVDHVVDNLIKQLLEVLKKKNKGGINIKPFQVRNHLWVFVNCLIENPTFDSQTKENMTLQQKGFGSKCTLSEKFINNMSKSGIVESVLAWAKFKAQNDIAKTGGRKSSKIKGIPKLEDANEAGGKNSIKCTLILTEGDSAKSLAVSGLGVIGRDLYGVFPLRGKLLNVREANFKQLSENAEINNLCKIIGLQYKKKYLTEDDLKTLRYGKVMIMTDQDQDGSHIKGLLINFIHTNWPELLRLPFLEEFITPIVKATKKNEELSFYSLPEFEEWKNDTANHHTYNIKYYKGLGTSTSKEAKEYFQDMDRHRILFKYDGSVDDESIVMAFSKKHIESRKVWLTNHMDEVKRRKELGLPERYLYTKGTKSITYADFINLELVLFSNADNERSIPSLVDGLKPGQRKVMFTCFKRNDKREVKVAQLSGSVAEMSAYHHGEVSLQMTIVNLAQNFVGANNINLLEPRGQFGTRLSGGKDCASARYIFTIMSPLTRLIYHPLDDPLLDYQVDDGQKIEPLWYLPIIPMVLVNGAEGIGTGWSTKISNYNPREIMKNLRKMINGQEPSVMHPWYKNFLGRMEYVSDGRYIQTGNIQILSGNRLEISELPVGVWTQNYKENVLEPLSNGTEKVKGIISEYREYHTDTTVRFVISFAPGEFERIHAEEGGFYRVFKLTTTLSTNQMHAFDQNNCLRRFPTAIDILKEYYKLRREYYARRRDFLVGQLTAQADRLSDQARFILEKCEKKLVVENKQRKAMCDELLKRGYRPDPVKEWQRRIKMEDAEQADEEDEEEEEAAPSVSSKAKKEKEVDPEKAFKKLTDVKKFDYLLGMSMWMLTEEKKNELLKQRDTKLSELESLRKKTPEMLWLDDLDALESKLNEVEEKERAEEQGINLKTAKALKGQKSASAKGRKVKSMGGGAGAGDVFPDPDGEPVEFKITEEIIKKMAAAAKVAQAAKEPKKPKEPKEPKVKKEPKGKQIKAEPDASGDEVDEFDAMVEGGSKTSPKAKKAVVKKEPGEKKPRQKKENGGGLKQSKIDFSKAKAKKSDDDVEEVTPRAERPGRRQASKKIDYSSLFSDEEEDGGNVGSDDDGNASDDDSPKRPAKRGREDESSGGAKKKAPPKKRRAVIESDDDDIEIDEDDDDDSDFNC

[3] = molecular target: topoisomerase I isolated from Pneumocystis carinii; experiment: Topoisomerase I inhibition (Pneumocystis carinii enzyme); type: biochemical; conditions: 50% inhibition of topoisomerase I isolated from Pneumocystis carinii
poly A poly T = experiment: DNA thermal melting (increase in Tm of poly A poly T); type: binding; conditions: MES buffer pH 6.0, 0.1 M NaCl, ratio of 0.3 moles of compound to nucleic acid bases
Procedure: (§1) Thermal melting curves for DNA and its complexes with compounds from Examples 4, 6, and 7-9 are determined as previously described in F.A. Tanious, et al., J.Biomol. Structure & Dynamics 11:1063 (1994) and W.D. Wilson, et al., Biochemistry 32:4098 (1993), by following the adsorption change at 260 nm as a function of temperature. Tm values were determined from first derivative plots. Compounds are compared by the increase in Tm (ΔTm=Tm of complex - Tm of the free nucleic acid) they produce in MES buffer (0.01M 2-(N-morpholino) ethanesulfonic acid, 0.001 M EDTA, 0.1 M NaCl adjusted to pH 6.0) at saturating amounts of compound (a ratio of 0.3 moles of compound to nucleic acid bases) unless otherwise indicated.

Pneumocystis carinii = experiment: In vivo activity against Pneumocystis carinii (lung cyst counts and toxicity); conditions: for Toxicity: toxicity scale, larger value = more severe, values greater than 2 indicate deaths of some animals
Giardia lamblia = experiment: Inhibition of growth of Giardia lamblia in in vitro culture; type: cell-based
[4] = test system: oligomer d(GCGCAATTGCGC)2; experiment: DNA thermal melting (increase in Tm of oligomer); type: binding; conditions: increase in thermal melting of the oligomer d(GCGCAATTGCGC)2; MES buffer pH 6.0
Procedure: as §1

Cryptosporidium parvum = experiment: Activity against Cryptosporidium parvum in suckling mice (oocyst counts); type: in vivo; conditions: suckling ICR outbred Swiss mice; for Oocysts: mean oocyst count, control 36.71; for % Reduction: reduction of mean oocyst count versus control
[5] = Pneumocystis carinii, iv, read-out: cyst/g lung (% of control)
[6] = Giardia duodenalis; read-out: IC50 Giardia lamblia

## N=C(N)c1ccc(-c2ccc(-c3ccc(C(=N)N)cc3)o2)cc1 [Compound 1, 2,5-bis(4-amidinophenyl)furan]
[1]
  IC50: 500 to 1000 nM
[2]
  IC50: 2000 nM
[3]
  IC50: 100000 nM
Poly A poly T
  ΔTm DNA: 25 °C
Pneumocystis carinii; [5]
  response vs control in vivo at 0.027 µM: 55.9%
  response vs control in vivo at 0.27 µM: 4.8%
  response vs control in vivo at 2.7 µM: 8.3%
  response vs control in vivo at 13.3 µM: 2.1%
Pneumocystis carinii; Pneumocystis carinii, po, read-out: cyst/g lung (% of control)
  response vs control in vivo at 66.3 µM: 28.4%
Pneumocystis carinii; dosage 0.027 µM/kg/day intravenous
  Toxicity: 0
Pneumocystis carinii; dosage 0.27 µM/kg/day intravenous
  Toxicity: 0
Pneumocystis carinii; dosage 2.7 µM/kg/day intravenous
  Toxicity: 0
Pneumocystis carinii; dosage 13.3 µM/kg/day intravenous
  Toxicity: 0
Pneumocystis carinii; dosage 66.3 µM/kg/day, oral dosage by gavage
  Toxicity: 0
Giardia lamblia; Giardia duodenalis, read-out: IC50 Giardia lamblia
  IC50: 200 nM
[4]
  ΔTm Oligomer: 11.7 °C
Cryptosporidium parvum
  Oocysts: 6.6
  % Reduction: 66%

## c1cc(-c2ccc(-c3ccc(C4=NCCCN4)cc3)o2)ccc1C1=NCCCN1 [Compound 3, 2,5-di-p[2(3,4,5,6-tetrahydropyrimidyl)phenyl]furan]
[1]
  IC50: 500 to 1000 nM
[2]
  IC50: 2500 nM
[3]
  IC50: > 100000 nM
Poly A poly T
  ΔTm DNA: > 28 °C
Pneumocystis carinii; [5]
  response vs control in vivo at 10.9 µM: 0.4%
Pneumocystis carinii; dosage 10.9 µM/kg/day intravenous
  Toxicity: +2
Giardia lamblia; [6]
  IC50: 60 nM
[4]
  ΔTm Oligomer: 13.5 °C

## CC(C)NC(=N)c1ccc(-c2ccc(-c3ccc(C(=N)NC(C)C)cc3)o2)cc1 [Compound 13, 2,5-bis[4-(N-isopropylamidino)phenyl]furan]
[1]
  IC50: 500 to 1000 nM
[2]
  IC50: 15000 to 30000 nM
Poly A poly T
  ΔTm DNA: 23.1 °C
Pneumocystis carinii; dosage 10.8 µM/kg/day intravenous
  Toxicity: 0
Giardia lamblia; [6]
  IC50: 140 nM
Cryptosporidium parvum
  Oocysts: 2.13
  % Reduction: 94.2%
